In article PMC10354432, “Preparation of caffeic acid grafted chitosan self-assembled micelles to enhance oral bioavailability and antibacterial activity of quercetin” (Frontiers in Veterinary Science, 2023):

Legend:
[1] = Particle size and morphology by transmission electron microscopy; format: physicochemical
Text: We evaluated the successful preparation of CA-g-CS by UV absorption and IR detection of CS, CA, and CA-g-CS and compared the solubility of CS as well as CA-g-CS in water. The morphology of CA-g-CS/QR and QR was characterized by transmission electron microscopy. CA-g-CS/QR and QR were dropped on clean copper grids, negatively stained with 2% phosphotungstic acid solution, and the water was evaporated in the air at room temperature. The samples were dried and placed under transmission electron microscopy to observe the morphology.

[2] = Stability of QR in white broiler plasma; format: in vitro ADME
Protocol: Precision and accuracy were assessed by running the standards (n = 6) for 1 day and three consecutive days for three levels of concentration (10.0, 100.0, and 500.0 ng/ml) at low, medium, and high. The stability of QR in the samples was also investigated by sampling and analyzing the three levels of spiked plasma at −20°C for 1 week and 4°C for 24 h.

[3] = In vivo pharmacokinetics in white-finned broiler chickens; conditions: Chinese white-finned broiler, po, i.g., 36 mg/kg
Text: The experimental procedures were reviewed and approved by the Institutional Animal Care and Use Committee of Hebei Agricultural University and carried out in accordance with the Guidelines for the Care and Use of Laboratory Animals of China. In this study, 12 healthy 30 days old Chinese white-finned broilers were used for the trial. All broilers were reared from 1 day of age and were provided with adequate basal diets and water, which were formulated to meet or exceed the nutritional requirements of broilers. Room temperature was maintained at 35°C for the first 3 days, then decreased to 28–30°C for the next 2 weeks and 25°C for the rest of the period. Broilers were randomly divided into two treatment groups (six broilers per treatment, n = 6) before the experiment, fasted for 18 h, and watered ad libitum. The experiment was administered by instillation, and blood was collected under the wings during the experiment according to the time designed for the experiment, and the plasma was centrifuged and separated for storage in a refrigerator at −20°C for processing and analysis. At the end of the experiment, broilers were euthanized.
The Waters Acquity UPLC H-Class system (Waters, Milford, MA, USA) includes a four-stage solvent manager, an autosampler set at 4°C and a Waters Acquity UPLC Shield RP18 column (100 × 2.1 mm, 1.7 μm, Waters. Milford, MA, USA). The mobile phase was methanol-0.1% phosphate (72:28, v/v). Detection was performed by a photodiode array detector at 373 nm at a flow rate of 0.2 mL/min. This assay was developed for the determination of QR in blood plasma.
A 200μL aliquot of plasma was sequentially added 20μL of 40μg/mL kaempferol internal standard, 100 μL of 25% HCL and 2 mL of ethyl acetate vortexed for 2 min equally. This mixture was centrifuged at 5000 rpm for 10 min, and the supernatant was transferred into a centrifuge tube and then concentrated to dryness under nitrogen. The analytes were dissolved in 200 μL of methanol/0.1% phosphoric acid water (4:1, v/v).
White-finned broilers were randomly divided into two experimental groups, one for the QR solution group and the other for the CA-g-CS/QR group, with six replicates in each group. The CA-g-CS/QR solution and the original QR solution were prepared and administered to the chickens at a dose of 36 mg/kg, and blood was collected under the wings at 15, 30, 60, 120, 240, 360, 480, 720, 1440, and 2160 min after the administration, placed in sodium heparin anticoagulation tubes and centrifuged to separate the plasma.
Pharmacokinetic parameters were estimated by blood concentration-time curves from Phoenix WinNonlin software. The […] was used to calculate the terminal elimination half-life (t1/2, λz), the area under the blood concentration-time curve (AUC0 − t), terminal feed time (AUC0−∞), total clearance (CL), and volume of distribution (Vd, λz). The peak blood concentration (Cmax) and time to peak (Tmax) were read directly from the observed individual blood concentration-time data. For instillation administration, the relative bioavailability (F) was calculated using the AUC0−∞ of CA-g-CS/QR versus QR.

[4] = test system: Escherichia coli CMCC44102; assay: MIC and MBC, micro broth twofold dilution; format: cell-based
Protocol: (§1) We selected Escherichia coli CMCC44102 and Escherichia coli of chicken origin as experimental strains to determine their Minimum Inhibitory Concentration (MIC) and Minimum Bactericidal Concentration (MBC). The culture medium was configured and autoclaved, and the bacteria were cultured. The bacterial broth of the logarithmic growth period was diluted by micro broth twofold dilution method, 100 μL broth was added to each well of a sterile 96-well plate, and then 100 μL of prepared drug solution was added to the first well respectively, mixed well, and then diluted in multiples until the last well was mixed and 100 μL of the mixture was discarded. Each well was added with 100 μL of the prepared bacterial diluent, and a positive control (with bacteria and no drug) and a negative control (without bacteria and no drug) were set up. […] The tritriazolium chloride (TTC) method was used to determine the MIC results. 5 g/L TTC was added to each well of the 96-well plate after incubation for 1 h at 37°C, and the MIC was determined as the lowest antibacterial drug concentration in the wells with bacterial growth and the wells without bacterial growth. 100 μL of the liquid from each well clarified in the above test group was spread on solid, and the lowest drug concentration for no colony growth was its MBC. Agar plate experiments were also performed using the Oxford cup method, using CA-g-CS/QR with QR aqueous solution and maintaining the same concentration, sterile water group and CA-g-CS group were set, and three parallel experiments were performed to further confirm the antibacterial activity of the compounds.

[5] = test system: Escherichia coli of chicken origin; assay: MIC and MBC, micro broth twofold dilution; format: cell-based
Protocol: as §1

[6] = rats; cited from earlier work
[7] = no colony growth on solid medium

O=c1c(O)c(-c2ccc(O)c(O)c2)oc2cc(O)cc(O)c12 [QR, Quercetin] showed a particle size [1] of 1.5 ± 0.1 μm, a remaining at 24 h, 10 ng/mL ([2]; prepared plasma sample, 10 ng/mL, read-out: Remaining (%) in prepared plasma sample stored at 4°C for 24h) of 92.8 ± 2.94% and a remaining at 24 h, 100 ng/mL ([2]; prepared plasma sample, 100 ng/mL, read-out: Remaining (%) in prepared plasma sample stored at 4°C for 24h) of 97.2 ± 5.63%. The remaining at 24 h, 500 ng/mL ([2]; prepared plasma sample, 500 ng/mL, read-out: Remaining (%) in prepared plasma sample stored at 4°C for 24h) was 99.98 ± 0.45%, the remaining at 168 h, 10 ng/mL ([2]; spiked plasma, 10 ng/mL, read-out: Remaining (%) in plasma stored at −20°C for 7 days) was 96.6 ± 6.62% and the remaining at 168 h, 100 ng/mL ([2]; spiked plasma, 100 ng/mL, read-out: Remaining (%) in plasma stored at −20°C for 7 days) was 103 ± 8.97%. For the same compound, the remaining at 168 h, 500 ng/mL ([2]; spiked plasma, 500 ng/mL, read-out: Remaining (%) in plasma stored at −20°C for 7 days) was 93.5 ± 1.78%, the AUC(0-inf) ([3]; n = 6) was 2840 ng·h/mL and the AUC(0-t) ([3]; n = 6) was 2760 ng·h/mL. For the same compound, the CL/F ([3]; n = 6) was 219 ± 44.1 mL/min/kg, the Cmax ([3]; n = 6) was 278 ± 18.5 ng/mL and the Tmax ([3]; n = 6) was 2 h. The half-life ([3]; n = 6, read-out: T1/2, λz) was 6.98 ± 0.704 h, the Vd/F ([3]; n = 6, read-out: Vd, λz/F) was 132 ± 25.5 L/kg and the MIC ([4]; 24 h at 37°C, TTC method) was 0.013 mol/L. It also gave an MBC [4, 7] of 0.026 mol/L, an MIC ([5]; 24 h at 37°C, TTC method) of 0.0585 mol/L and an MBC [5, 7] of 0.117 mol/L. The oral bioavailability [6] was < 17%.
